Target: EGFR (human) (UniProt P00533)
Conditions: A431

EGFR (human), sequence (P00533 whole entry, looked up): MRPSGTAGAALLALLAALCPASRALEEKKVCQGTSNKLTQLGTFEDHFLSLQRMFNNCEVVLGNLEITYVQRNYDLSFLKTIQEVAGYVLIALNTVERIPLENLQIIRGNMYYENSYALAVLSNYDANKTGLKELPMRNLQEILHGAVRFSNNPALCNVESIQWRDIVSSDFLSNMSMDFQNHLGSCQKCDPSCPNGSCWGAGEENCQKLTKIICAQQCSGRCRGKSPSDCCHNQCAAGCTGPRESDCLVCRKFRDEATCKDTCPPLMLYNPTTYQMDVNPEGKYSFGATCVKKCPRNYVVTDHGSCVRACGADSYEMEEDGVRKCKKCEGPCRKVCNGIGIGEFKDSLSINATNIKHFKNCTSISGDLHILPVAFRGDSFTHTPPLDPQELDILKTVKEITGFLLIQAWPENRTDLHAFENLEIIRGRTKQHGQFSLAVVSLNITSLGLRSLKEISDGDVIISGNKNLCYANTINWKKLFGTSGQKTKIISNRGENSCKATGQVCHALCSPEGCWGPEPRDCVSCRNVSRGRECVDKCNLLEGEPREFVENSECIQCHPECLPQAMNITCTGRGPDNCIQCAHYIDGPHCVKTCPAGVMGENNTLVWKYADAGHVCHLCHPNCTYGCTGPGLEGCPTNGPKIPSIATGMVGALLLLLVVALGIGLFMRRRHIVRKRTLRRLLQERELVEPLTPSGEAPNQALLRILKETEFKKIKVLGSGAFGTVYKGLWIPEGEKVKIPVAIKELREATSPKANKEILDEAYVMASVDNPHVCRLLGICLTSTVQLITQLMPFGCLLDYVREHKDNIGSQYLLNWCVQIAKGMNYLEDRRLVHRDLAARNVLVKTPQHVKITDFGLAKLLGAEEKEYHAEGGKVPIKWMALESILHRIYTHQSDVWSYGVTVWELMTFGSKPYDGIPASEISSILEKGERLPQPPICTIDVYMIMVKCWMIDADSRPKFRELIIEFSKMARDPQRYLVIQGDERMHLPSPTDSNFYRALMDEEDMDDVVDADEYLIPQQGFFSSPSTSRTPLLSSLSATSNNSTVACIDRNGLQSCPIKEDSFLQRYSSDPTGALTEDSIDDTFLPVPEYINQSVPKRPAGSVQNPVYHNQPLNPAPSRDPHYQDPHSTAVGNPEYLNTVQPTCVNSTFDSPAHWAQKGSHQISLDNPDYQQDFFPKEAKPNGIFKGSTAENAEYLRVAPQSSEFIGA

| SMILES | IC50 [µM] |
| --- | --- |
| Oc1cccc(C=Nc2cccc(O)c2)c1 | > 140 |
| Oc1cccc(NCc2ccccc2O)c1 | > 140 |
| Oc1cccc(N=Cc2ccccc2O)c1 | > 140 |
| Oc1ccccc1C=Nc1ccccc1O | > 140 |
| Oc1ccc(CNc2cccc(O)c2)cc1 | > 140 |
| Oc1ccc(NCc2ccccc2O)cc1 | > 140 |
| Oc1ccc(CNc2ccccc2O)cc1 | > 140 |
| Oc1cccc(CNc2cccc(O)c2)c1 | > 140 |
| Oc1ccc(C=Nc2ccc(O)cc2)cc1 | > 140 |
| Oc1cccc(CNc2ccccc2O)c1 | > 140 |
| Oc1ccc(C=Nc2ccccc2O)cc1 | > 140 |
| Oc1ccc(NCc2cccc(O)c2)cc1 | > 140 |

Other lines, results leading:

| IC50 [µM] | SMILES |
| --- | --- |
| > 140 | Oc1ccccc1CNc1ccccc1O |
| > 140 | Oc1ccc(C=Nc2cccc(O)c2)cc1 |
| 33 | Oc1ccc(CNc2ccc(O)cc2)cc1 |
| 33 | Oc1ccc(N=Cc2cccc(O)c2)cc1 |
| 0.4 | O=C(O)c1cc(N(Cc2ccccc2O)Cc2cc(O)ccc2O)ccc1O |
| 92 | Oc1ccc(N=Cc2ccccc2O)cc1 |
| 108 | Oc1cccc(C=Nc2ccccc2O)c1 |

Reference: the Kinase Knowledgebase extract (Sharma et al. 2016)
